ChEMBL document CHEMBL4616632, “Discovery of Cyclic Boronic Acid QPX7728, an Ultrabroad-Spectrum Inhibitor of Serine and Metallo-β-lactamases” (J Med Chem, 2020)

Legend:
[1] = Inhibition of recombinant Escherichia coli AmpC using nitrocefin as substrate preincubated for 10 mins followed by substrate addition measured every 10 secs for 10 mins by spectrophotometrically analysis
[2] = system: Klebsiella pneumoniae; assay: Potentiation of meropenem-induced bacteriostatic activity against carbapenem-resistant Klebsiella pneumoniae KP1244 harboring KPC-3, SHV-11, and SHV-12 infected in Swiss-Webster mouse model of neutropenic thigh infection assessed as log change in bacterial count in thigh at 0.5 mg/kg, ip administered at 2 hrs interval for 24 hrs starting from 2 hr post infection and measured post last dose (reference value: 0.62 log10CFU); type: functional
[3] = Clearance in rat at 1000 mg/kg, po administered via gavage by HPLC/MS analysis; type: ADME, organism-based; details: in vivo
[4] = Protein binding in human plasma; type: ADME, cell-free; details: read-out: PPB (converted)
[5] = target: Class A carbapenemase KPC-2 (Escherichia coli, UniProt A8DS27); assay: Inhibition of recombinant Escherichia coli KPC-2 using nitrocefin as substrate preincubated for 10 mins followed by substrate addition and measured every 10 secs for 10 mins by spectrophotometric analysis
[6] = system: Klebsiella pneumoniae; assay: Inhibition of Klebsiella pneumoniae KP1081 NDM-1 assessed as minimum concentration of compound required to reduce the MIC of biapenem to 1 ug/ml
[7] = Cmax in rat at 30 mg/kg, po administered via gavage by HPLC/MS analysis; type: ADME, organism-based; parameters: dose 30 mg/kg, route oral; details: in vivo
[8] = target: Interstitial collagenase (Homo sapiens, UniProt P03956); assay: Inhibition of mammalian MMP-1 (unknown origin) using McaPLGLDpaAR-NH2 as substrate preincubated for 10 mins followed by substrate addition measured after 30 mins
[9] = system: Pseudomonas aeruginosa; assay: Potentiation of ceftolozane-induced antibacterial activity against Pseudomonas aeruginosa assessed as ceftolozane MIC90 at 8 ug/ml by broth microdilution method (reference value: 4 ug/ml); type: functional
[10] = Toxicity in rat assessed as clinical changes at 30 to 300 mg/kg, iv administered daily via infusion for 7 days; type: organism-based; details: in vivo, 168 h
[11] = system: Enterobacteriaceae; assay: Potentiation of ceftolozane-induced antibacterial activity against carbapenem-resistant Enterobacteriaceae assessed as ceftolozane MIC90 at 8 ug/ml by broth microdilution method (Rvb > 32 ug/ml); type: functional
[12] = Clearance in rat at 30 mg/kg, po administered via gavage by HPLC/MS analysis; type: ADME, organism-based; details: in vivo
[13] = system: Enterobacteriaceae; assay: Inhibition of NDM/VIM in carbapenem-resistant Enterobacteriaceae assessed as potentiation of cefepime-induced antibacterial activity by measuring cefepime MIC90 at 8 ug/ml by broth microdilution method (Rvb > 32 ug/ml)
[14] = target: Chymotrypsin (Homo sapiens, UniProt Q99895+P17538+P40313+Q6GPI1); assay: Inhibition of mammalian chymotrypsin (unknown origin) using Suc-AAPF-AMC as substrate preincubated for 10 mins followed by substrate addition measured after 30 mins; type: protein assay
[15] = system: Klebsiella pneumoniae; assay: Potentiation of meropenem-induced antibacterial activity against carbapenem-resistant Klebsiella pneumoniae assessed as meropenem MIC90 at 8 ug/ml by broth microdilution method (Rvb > 32 ug/ml); type: functional

Class A carbapenemase KPC-2, sequence (A8DS27 whole entry): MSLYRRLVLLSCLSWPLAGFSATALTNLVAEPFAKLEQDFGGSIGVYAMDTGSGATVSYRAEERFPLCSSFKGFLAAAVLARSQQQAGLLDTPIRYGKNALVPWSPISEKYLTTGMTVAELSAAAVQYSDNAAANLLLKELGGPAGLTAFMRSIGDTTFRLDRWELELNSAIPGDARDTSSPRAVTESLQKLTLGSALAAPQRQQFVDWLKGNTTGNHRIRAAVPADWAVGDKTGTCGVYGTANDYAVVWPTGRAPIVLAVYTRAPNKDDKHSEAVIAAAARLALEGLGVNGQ
Interstitial collagenase, sequence (P03956 whole entry): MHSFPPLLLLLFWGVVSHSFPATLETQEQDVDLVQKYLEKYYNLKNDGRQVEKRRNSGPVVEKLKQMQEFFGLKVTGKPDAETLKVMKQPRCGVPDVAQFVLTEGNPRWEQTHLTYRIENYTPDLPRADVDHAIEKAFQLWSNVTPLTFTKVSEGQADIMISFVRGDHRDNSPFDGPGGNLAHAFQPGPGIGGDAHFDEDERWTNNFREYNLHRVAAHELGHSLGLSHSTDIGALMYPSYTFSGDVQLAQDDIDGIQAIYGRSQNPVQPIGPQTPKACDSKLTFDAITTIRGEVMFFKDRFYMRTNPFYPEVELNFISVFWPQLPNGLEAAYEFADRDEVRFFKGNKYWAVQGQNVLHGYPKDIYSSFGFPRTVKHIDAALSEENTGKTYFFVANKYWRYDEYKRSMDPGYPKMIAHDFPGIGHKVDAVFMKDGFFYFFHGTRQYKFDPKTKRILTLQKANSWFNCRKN

O=C(O)c1c(F)ccc2c1OB(O)[C@@H]1C[C@H]21 [XERUBORBACTAM]
Ki [1]: 0.0085 µM
Activity [2]: -0.03 log10CFU
CL/F [3]: 2.05 L/h/kg
fraction unbound [4]: 0.04
Ki [5]: 0.0019 µM
MEC [6]: 0.6 µg/mL
Cmax [7]: 8.6 µg/mL
IC50 [8]: > 1000 µM
MIC90 [9]: 1 mg/L
Activity [10]: Toxic
MIC90 [11]: 1 mg/L
CL/F [12]: 0.91 L/h/kg
MIC90 [13]: 1 mg/L
IC50 [14]: > 1000 µM
MIC90 [15]: 0.125 mg/L
